Test system: C57BL/6 mice
Experiment: In vivo translation efficacy of hEPO-encoding mRNA-LNPs (serum hEPO ELISA)
Details: 1 μg mRNA i.v., 4, 8, 24 and 48 h
Experimental: Two reporters were selected to determine in vivo protein production: firefly luciferase (FLuc) and human erythropoietin (hEPO). The mRNA encoding each gene was obtained by IVT using T7 RNA polymerase for co-transcriptional capping with m^7Gppp^5′SAmpG and m^7GpppAmpG as the reference cap structure. 500 μl or 1000 μl of the IVT mix (for obtaining mRNA encoding hEPO or FLuc, respectively) contained following components at indicated final concentration: transcription buffer with 2 mM spermidine and Bis-Tris pH 6.5, 1 U/μl RNase inhibitor (RiboLock, ThermoFisher Scientific), 5 mM ATP, CTP and UTP, 4 mM GTP, 10 mM DTT, 25 mM MgCl2, 0.002 U/μl inorganic pyrophosphatase (ThermoFisher Scientific), 10 mM m^7GpppAmpG or m^7Gppp^5’SAmpG, 40 ng/μl linearized plasmid as the DNA template and 0.125 μg/μl T7 RNA polymerase (in-house prepared). All components were gently mixed by pipetting and incubated for one hour at 37°C. After DNA template removal, obtained mRNA was initially purified using oligo(dT)25 resin, as previously described, and concentrated by ultrafiltration (Amicon Ultra-15 50K or 100K, Millipore) prior loading on preparative column. […] Eluate quality was analyzed on 1 × TBE 1.2% agarose gel, and the fractions containing mRNA of the highest purity were combined, desalted by ultrafiltration (Amicon Ultra-15 50K or 100K, Millipore), and precipitated. […]

With CO[C@@H]1[C@H](OP(=O)(O)OC[C@H]2O[C@@H](n3cnc4c(=O)[nH]c(N)nc43)[C@H](O)[C@@H]2O)[C@@H](CSP(=O)([O-])OP(=O)(O)OP(=O)(O)OC[C@H]2O[C@@H](n3c[n+](C)c4c(O)nc(N)nc43)[C@H](O)[C@@H]2O)O[C@H]1n1cnc2c(N)ncnc21 [Compound 8, m^7Gppp^5’SAmpG] the “serum hEPO protein expression versus m^7GpppAmpG-capped mRNA (in words)” value (MC3 LNP) was “slight increase in protein expression” and the “serum hEPO protein expression versus m^7GpppAmpG-capped mRNA (in words)” value (SM-102 LNP) was “no significant differences”.
